Earlier results in patent publication US6514527B1, “Compositions comprising a mixture of bioflavonols” (Merck Patentgesellschaft, priority 1998, dated 2003).

Conditions: orally administered

time to reach peak	SMILES
about 0.70 h	O=c1c(O[C@@H]2O[C@H](CO)[C@@H](O)[C@H](O)[C@H]2O)c(-c2ccc(O)c(O)c2)oc2cc(O)cc(O)c12 [isoquercetin]
about 3 h	O=c1c(O)c(-c2ccc(O)c(O)c2)oc2cc(O)cc(O)c12 [quercetin]
